Measurements: patent US9650339B2, “Inhibitors of histone demethylases” (Gilead Sciences, Inc., priority 2013, dated 2017)

How the values were obtained:
Type in all cases: biochemical
[1] = target: T1, KDM4B (JMJD2B) (Homo sapiens, UniProt O94953); assay: Histone lysine demethylase AlphaLISA assay, KDM4B; conditions: read-out: KDM4B HDME Inhibition IC50
T1 construct: 2-500; purchased BPS; host or cells: Bac (baculovirus system)
T1 sequence (O94953 2-500): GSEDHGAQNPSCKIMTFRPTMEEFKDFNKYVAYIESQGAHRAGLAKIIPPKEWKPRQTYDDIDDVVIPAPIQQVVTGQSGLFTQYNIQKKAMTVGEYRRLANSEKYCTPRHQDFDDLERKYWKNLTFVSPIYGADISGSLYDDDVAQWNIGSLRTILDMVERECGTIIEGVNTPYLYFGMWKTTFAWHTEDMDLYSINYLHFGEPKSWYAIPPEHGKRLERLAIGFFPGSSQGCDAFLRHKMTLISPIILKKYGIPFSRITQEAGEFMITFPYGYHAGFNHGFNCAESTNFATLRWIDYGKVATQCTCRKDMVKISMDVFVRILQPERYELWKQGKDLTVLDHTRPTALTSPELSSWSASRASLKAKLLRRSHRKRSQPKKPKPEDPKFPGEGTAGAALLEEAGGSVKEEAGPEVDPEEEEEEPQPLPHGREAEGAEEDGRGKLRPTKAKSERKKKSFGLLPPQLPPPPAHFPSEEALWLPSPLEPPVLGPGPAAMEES
Outline: (§1)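 Steps: enzyme equilibrated 10 min in buffer; compounds in 3% DMSO solution added, 10 min; substrate mix added (peptide, 25 μM L-Asc, 10 μM α-KG), room temperature; acceptor beads, then streptavidin donor beads, dark incubations; plate read.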

[2] = target: T2, KDM5B (PLU-1) (Homo sapiens, UniProt Q9UGL1); assay: Histone lysine demethylase AlphaLISA assay, KDM5B; conditions: read-out: KDM5B HDME Inhibition IC50
T2 sequence (Q9UGL1 1-809): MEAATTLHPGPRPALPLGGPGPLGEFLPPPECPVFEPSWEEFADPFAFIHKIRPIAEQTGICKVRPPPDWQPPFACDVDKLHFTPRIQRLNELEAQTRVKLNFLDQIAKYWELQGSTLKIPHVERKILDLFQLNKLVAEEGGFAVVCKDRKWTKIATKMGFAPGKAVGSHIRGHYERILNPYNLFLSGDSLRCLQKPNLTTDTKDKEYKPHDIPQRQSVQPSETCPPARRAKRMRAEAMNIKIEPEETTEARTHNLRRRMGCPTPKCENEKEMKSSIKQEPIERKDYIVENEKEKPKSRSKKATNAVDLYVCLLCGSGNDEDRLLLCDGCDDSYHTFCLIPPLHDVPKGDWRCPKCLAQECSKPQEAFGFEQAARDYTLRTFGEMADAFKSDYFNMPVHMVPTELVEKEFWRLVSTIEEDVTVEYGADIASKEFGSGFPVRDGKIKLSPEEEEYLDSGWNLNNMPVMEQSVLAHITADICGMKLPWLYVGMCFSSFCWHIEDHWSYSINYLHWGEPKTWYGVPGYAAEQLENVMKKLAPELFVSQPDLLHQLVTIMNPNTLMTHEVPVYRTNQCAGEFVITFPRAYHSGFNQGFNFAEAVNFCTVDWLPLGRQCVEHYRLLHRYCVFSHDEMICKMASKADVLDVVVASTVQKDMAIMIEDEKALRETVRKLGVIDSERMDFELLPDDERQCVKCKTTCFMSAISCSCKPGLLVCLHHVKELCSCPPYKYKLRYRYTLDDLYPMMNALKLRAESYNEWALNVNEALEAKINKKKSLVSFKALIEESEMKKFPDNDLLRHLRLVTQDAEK
Outline: as §1

[3] = target: T3, KDM6B (JMJD3) (Homo sapiens, UniProt O15054); assay: Histone lysine demethylase AlphaLISA assay, KDM6B; conditions: read-out: KDM6B HDME Inhibition IC50
T3 construct: 1043-end; purchased BPS; host or cells: Bac (baculovirus system)
T3 sequence (O15054 1043-1682 isoform O15054-1 limits assumed): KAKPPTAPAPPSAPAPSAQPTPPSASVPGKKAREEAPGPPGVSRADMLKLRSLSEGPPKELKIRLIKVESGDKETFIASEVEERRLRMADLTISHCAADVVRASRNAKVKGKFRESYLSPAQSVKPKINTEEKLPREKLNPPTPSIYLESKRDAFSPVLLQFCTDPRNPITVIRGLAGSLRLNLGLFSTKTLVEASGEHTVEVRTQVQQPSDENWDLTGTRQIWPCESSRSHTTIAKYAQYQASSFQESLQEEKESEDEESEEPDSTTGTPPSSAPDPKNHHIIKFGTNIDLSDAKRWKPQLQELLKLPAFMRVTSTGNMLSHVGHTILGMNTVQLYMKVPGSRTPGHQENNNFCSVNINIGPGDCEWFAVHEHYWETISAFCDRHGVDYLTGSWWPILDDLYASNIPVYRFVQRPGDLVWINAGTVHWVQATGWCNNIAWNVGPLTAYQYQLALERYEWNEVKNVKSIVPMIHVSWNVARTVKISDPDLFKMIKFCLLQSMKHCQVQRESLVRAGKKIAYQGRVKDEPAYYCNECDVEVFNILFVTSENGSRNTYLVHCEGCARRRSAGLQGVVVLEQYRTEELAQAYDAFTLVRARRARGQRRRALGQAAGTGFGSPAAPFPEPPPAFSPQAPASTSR
Outline: as §1

[4] = target: T4, KDM7 (PHF8) (Homo sapiens, UniProt Q9UPP1); assay: Histone lysine demethylase AlphaLISA assay, KDM7; conditions: read-out: PHF8 HDME Inhibition IC50
T4 construct: KDM7 (PHF8); BRIC; 1-1322; Bac
T4 sequence (Q9UPP1 37-440 limits assumed): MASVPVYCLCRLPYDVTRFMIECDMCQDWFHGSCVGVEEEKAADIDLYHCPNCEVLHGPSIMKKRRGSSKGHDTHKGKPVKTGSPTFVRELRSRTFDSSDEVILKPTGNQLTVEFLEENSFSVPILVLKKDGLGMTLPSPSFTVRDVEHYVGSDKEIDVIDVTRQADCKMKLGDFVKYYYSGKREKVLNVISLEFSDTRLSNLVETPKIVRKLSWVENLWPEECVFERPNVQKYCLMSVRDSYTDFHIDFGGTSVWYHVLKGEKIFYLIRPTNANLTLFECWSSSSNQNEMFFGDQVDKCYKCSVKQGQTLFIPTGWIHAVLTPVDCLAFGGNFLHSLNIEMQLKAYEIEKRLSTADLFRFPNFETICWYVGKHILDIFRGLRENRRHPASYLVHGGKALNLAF
Outline: as §1

SMILES | IC50 [1] [nM] | IC50 [2] [nM] | IC50 [3] [nM] | IC50 [4] [nM]
CCCCCCCC/N=C/c1ccnc(CNCC(=O)N(CC)CC)c1 [Compound 58, N,N-diethyl-2-[({4-[(octylimino)methyl]-pyridin-2-yl}methyl)amino]-acetamide] | > 2500 | < 250 | > 2500 | > 2500
CCN(CC)CCCCNCc1cc(/C=N/CCOC)ccn1 [Compound 60, [4-(diethylamino)butyl]-({4-[[(2-methoxyethyl)imino]-methyl]pyridin-2-yl}methyl)amine] | < 250 | < 250 | > 2500 | 250 to 2500
CCN(CC)CCCCNCc1cc(/C=N/CCO)ccn1 [Compound 61, 2-[{[2-({[4-(diethylamino)-butyl]amino}-methyl)pyridin-4-yl]methylidene}-amino]ethan-1-ol] | < 250 | < 250 | > 2500 | > 2500
CCN(CC)CCCCNCc1cc(/C=N/CC(F)(F)C(F)(F)F)ccn1 [Compound 62, {[2-({[4-(diethylamino)-butyl]amino}methyl)pyridin-4-yl]methylidene} (2,2,3,3,3-pentafluoropropyl)-amine] | 250 to 2500 | < 250 | > 2500 | > 2500
CCN(CCN(C)C)C(=O)CNCc1cc(/C=N/CCC2CCCCC2)ccn1 [Compound 63, 2-[({4-[[(2-cydohexylethyl)-imino]methyl]pyridin-2-yl}methyl)amino]-N-[2-(dimethylamino)-ethyl]-N-ethylacetamide] | 250 to 2500 | < 250 | > 2500 | > 2500
CON=Cc1ccnc(CNCCCN(C)C)c1 [Compound 64, [3-(dimethylamino)-propyl]({4-[(methoxyimino)-methyl]pyridin-2-yl}methyl)amine] | < 250 | < 250 | > 2500 | > 2500
CCN(CC)CCCCNCc1cc(C2NCCN2C)ccn1 (centres unmarked) [Compound 65, [4-(diethylamino)-butyl]({[4-(1-methylimidazolidin-2-yl)pyridin-2-yl]methyl})amine] | > 2500 | < 250 | > 2500 | > 2500
CCN(CCN(C)C)C(=O)CNCc1cc(/C=N/CCO)ccn1 [Compound 66] | < 250 | < 250 | > 2500 | 250 to 2500
CN(C)C/C=C/CNCc1cc(C=O)ccn1 [Compound 98, 2-({[(2E)-4-(dimethylamino)but-2-en-1-yl]amino}-methyl)pyridine-4-carbaldehyde] | > 2500 | < 250 | > 2500 | > 2500
CCN(CCN(C)C)C(=O)CNCc1cc(C=O)ccn1 [Compound 101] | < 250 | < 250 | > 2500 | 250 to 2500
O=Cc1ccnc(CNCC(=O)N2CCC[C@@H]2CN2CCCC2)c1 [Compound 102, 2-[({2-oxo-2-[(2R)-2-(pyrrolidin-1-ylmethyl)pyrrolidin-1-yl]ethyl}amino)-methyl]pyridine-4-carbaldehyde] | 250 to 2500 | < 250 | > 2500 | > 2500
CN1CCN(C(=O)CNCc2cc(C=O)ccn2)CC1 [Compound 103, 2-({[2-(4-methylpiperazin-1-yl)-2-oxoethyl]-amino}methyl)-pyridine-4-carbaldehyde] | > 2500 | 250 to 2500 | > 2500 | > 2500
CCN1CCCC1CNC(=O)CNCc1cc(C=O)ccn1 (centres unmarked) [Compound 104, N-[(1-ethylpyrrolidin-2-yl)methyl]-2-{[(4-formylpyridin-2-yl)methyl]amino}-acetamide] | < 250 | < 250 | > 2500 | 250 to 2500
O=Cc1ccnc(CNCC(=O)N2CCC(Cc3ccccc3)CC2)c1 [Compound 106, 2-({[2-(4-benzylpiperidin-1-yl)-2-oxoethyl]-amino}methyl)-pyridine-4-carbaldehyde] | < 250 | < 250 | > 2500 | 250 to 2500
CCN(CC)CCCCNCc1cc(C=O)ccn1 [Compound 107, 2-({[4-(diethylamino)-butyl]amino}-methyl)pyridine-4-carbaldehyde] | < 250 | < 250 | > 2500 | > 2500
O=Cc1ccnc(CNCCCN2CCCC2)c1 [Compound 111, 2-({[3-(pyrrolidin-1-yl)propyl]amino}-methyl)pyridine-4-carbaldehyde] | 250 to 2500 | < 250 | > 2500 | > 2500
CN(C)CCCCCNCc1cc(C=O)ccn1 [Compound 114, 2-({[5-(dimethylamino)-pentyl]amino}methyl)-pyridine-4-carbaldehyde] | 250 to 2500 | < 250 | > 2500 | > 2500
